According to patent publication US20250243160A1, “INDOLE DERIVATIVES FOR TARGETING AUTOPHAGY” (Automera PTE. LTD, priority 2024, published 2025):

Test system: p62 puncta
Experiment: p62 puncta immunocytochemistry imaging in HeLa cells
Assay type: cell-based
Details: 24 hours treatment, relative to vehicle control (DMSO)
Description: HeLa cells were seeded in coated 96-well plates (10,000 cells) and allowed to adhere overnight. After 24 hours of treatment with either vehicle (DMSO) or test compounds, the media was discarded, and cells were rinsed with ice-cold 1×PBS before fixation by 4% formaldehyde or paraformaldehyde for 20 min. Cells were then washed with 1×PBS and permeabilized with 0.1% Triton X-100 in PBS for 20 min and blocked with Blocking Buffer in PBS for 1 hour. The cells were incubated thereafter for 1 hour with anti-p62 primary antibody in Blocking Buffer, followed by incubation with secondary antibody for 1 hour. DAPI dye was used to visualize nuclei of fixed cells. The blocking buffer used were 5% Fetal Bovine Serum (FBS, ThermoFIsher Scientific, 10270106) and Li-cor Intercept (PBS) Blocking Buffer (Li-cor, 927-70001). The primary antibody used was mouse anti-p62 primary antibody (Novus Biologicals, H00008878-M01). The secondary antibodies used were goat anti-mouse Alexa Fluor Plus 488 secondary antibody (Invitrogen, GOXMS) and goat anti-mouse Alexa Fluor 488 secondary antibody (Invitrogen, A-11029). The DAPI dyes used were DAPI dye (Invitrogen, 62248) and DAPI dye (Invitrogen, D1306).
For the EVOS M7000 System, cells were imaged on the EVOS M7000 microscope using a 20× air objective (Nikon, N.A 0.45). DAPI and p62 channels were illuminated with LED light cubes using integrated hard-coated filter sets for DAPI (357/447 nm) and GFP (470/525 nm) respectively. Images were analysed for p62 puncta count on the Celeste 6.0 software.
For the Operetta CLS System, cells were imaged on the Operetta CLS using a 63× water objective on the DAPI and Alexa 488 channels. Images were analysed for p62 puncta count on the Harmony 5.1 software.
HeLa cells were treated with compounds for 24 hours to evaluate the effect of these compounds on p62 puncta activity. The resulting changes in levels of p62 puncta were assessed by imaging, either on the EVOS M7000 or Operetta CLS systems as described in experimental procedures. The fold change of p62 puncta levels induced by compound treatment relative to vehicle control (DMSO) was determined and summarized in Table 10.

## CC(C)(C)OC(=O)CCCCOCCNCc1cc(F)cc2c1ccn2Cc1ccc(Cl)cc1 [Compound 147]
  p62 puncta (fold change of p62 puncta levels): + (<2-fold change in p62 puncta levels relative to DMSO control)

## C#CCCN1CCN(CCOCCNCc2cc(F)cc3c2ccn3Cc2ccc(Cl)cc2)CC1 [Compound 121]
  p62 puncta (fold change of p62 puncta levels): ++ (>2-fold change in p62 puncta levels relative to DMSO control)

## C#CCCOCCOCCOCCNCc1cc(F)cc2c1ccn2Cc1ccc(F)cc1 [Compound 123]
  p62 puncta (fold change of p62 puncta levels): ++ (>2-fold change in p62 puncta levels relative to DMSO control)

## CNCCOCCOCCOCCNCc1cc(F)cc2c1ccn2Cc1ccc(Cl)cc1 [Compound 90]
  p62 puncta (fold change of p62 puncta levels): ++ (>2-fold change in p62 puncta levels relative to DMSO control)

## C#CCCOCCOCCOCCNCc1cccc2c1ccn2CCc1cccnc1 [Compound 126]
  p62 puncta (fold change of p62 puncta levels): + (<2-fold change in p62 puncta levels relative to DMSO control)

## C#CCCCCCOCCNCc1cc(F)cc2c1ccn2Cc1ccc(Cl)cc1 [Compound 148]
  p62 puncta (fold change of p62 puncta levels): + (<2-fold change in p62 puncta levels relative to DMSO control)

## C#CCCN1CCC(COCCNCc2cc(F)cc3c2ccn3Cc2ccc(Cl)cc2)CC1 [Compound 120]
  p62 puncta (fold change of p62 puncta levels): ++ (>2-fold change in p62 puncta levels relative to DMSO control)

## CC(C)(C)OC(=O)COCCCOCCNCc1cc(F)cc2c1ccn2Cc1ccc(Cl)cc1 [Compound 139]
  p62 puncta (fold change of p62 puncta levels): + (<2-fold change in p62 puncta levels relative to DMSO control)

## COCCN1CCC(OCCNCc2cc(F)cc3c2ccn3Cc2ccc(Cl)cc2)CC1 [Compound 130]
  p62 puncta (fold change of p62 puncta levels): ++ (>2-fold change in p62 puncta levels relative to DMSO control)

## CC(C)(C)OC(=O)COCCNCc1cc(F)cc2c1ccn2Cc1ccc(Cl)cc1 [Compound 141]
  p62 puncta (fold change of p62 puncta levels): + (<2-fold change in p62 puncta levels relative to DMSO control)

## C#Cc1ccc(COCCNCc2cc(F)cc3c2ccn3Cc2ccc(Cl)cc2)cc1 [Compound 173]
  p62 puncta (fold change of p62 puncta levels): ++ (>2-fold change in p62 puncta levels relative to DMSO control)

## CNCCOCc1cccc2c1ccn2Cc1ccc(F)cc1 [Compound 77]
  p62 puncta (fold change of p62 puncta levels): ++ (>2-fold change in p62 puncta levels relative to DMSO control)

## CC(C)(C)OC(=O)NC[C@H]1CC[C@H](COCCNCc2cc(F)cc3c2ccn3Cc2ccc(Cl)cc2)CC1 [Compound 175]
  p62 puncta (fold change of p62 puncta levels): ++ (>2-fold change in p62 puncta levels relative to DMSO control)

## C#CCOCCOCCNCc1cc(F)cc2c1ccn2Cc1ccc(Cl)cc1 [Compound 140]
  p62 puncta (fold change of p62 puncta levels): ++ (>2-fold change in p62 puncta levels relative to DMSO control)

## COC(=O)c1cccc(COCCNCc2cc(F)cc3c2ccn3Cc2ccc(Cl)cc2)c1 [Compound 145]
  p62 puncta (fold change of p62 puncta levels): + (<2-fold change in p62 puncta levels relative to DMSO control)

## CC(C)(C)OC(=O)CCOCCOCCNCc1cc(F)cc2c1ccn2Cc1ccc(Cl)cc1 [Compound 138]
  p62 puncta (fold change of p62 puncta levels): ++ (>2-fold change in p62 puncta levels relative to DMSO control)

## CC(C)(C)OC(=O)CCCCCCCCOCCNCc1cc(F)cc2c1ccn2Cc1ccc(Cl)cc1 [Compound 149]
  p62 puncta (fold change of p62 puncta levels): + (<2-fold change in p62 puncta levels relative to DMSO control)

## C#CCCOCCOCCOCCNCc1ccc(Cl)c2c1ccn2Cc1ccccc1 [Compound 122]
  p62 puncta (fold change of p62 puncta levels): ++ (>2-fold change in p62 puncta levels relative to DMSO control)

## COC(=O)CCOCCOCCNCc1cc(F)cc2c1ccn2Cc1ccc(Cl)cc1 [Compound 88]
  p62 puncta (fold change of p62 puncta levels): + (<2-fold change in p62 puncta levels relative to DMSO control)

## CC(C)(C)OC(=O)NCCOCCNCc1cc(F)cc2c1ccn2Cc1ccc(Cl)cc1 [Compound 133]
  p62 puncta (fold change of p62 puncta levels): ++ (>2-fold change in p62 puncta levels relative to DMSO control)
